From patent US20050037033A1, “Microbicidal compositions and methods and use” (priority 2003, published 2005) come the findings set out here.

The structures appear in SMILES notation.

Common to all, as to type: cell-based
One test has as its system Mobiluncus mulieris. Put plainly: Anaerobe inhibition assay. Particulars: 2 strains, read-out: Minimum Inhibitory Concentrations (MICs).
The subject of another test is Prevotella disiens. Put plainly: Anaerobe inhibition assay. The settings on record: 2 strains, read-out: Minimum Inhibitory Concentrations (MICs).
Test [1] concerns Gardnerella vaginalis, Mobiluncus spp., Bacteroides spp., Clostridium perfringes, Fusobacterium nucleatum, Peptostreptococcus spp., Porphyromonas spp., and …. Put plainly: Anaerobe inhibition assay, all anaerobes tested.

As to `Cc1cc(C2CCCCC2)n(O)c(=O)c1.NCCO` [CO, 6-Cyclohexyl-1-hydroxy-4-methyl-2-(1H)-pyridone ethanolamine salt], the MIC with Mobiluncus mulieris and with Prevotella disiens was 40 mg/L each time. Also, in test [1], the “minimal inhibitory concentrations (MICs), range over all anaerobes tested” value fell in the range of 40 to 80 mg/L.
